We go through 15 molecules from paper PMC7307883, “Targeting Cavity-Creating p53 Cancer Mutations with Small-Molecule Stabilizers: the Y220X Paradigm” (ACS Chemical Biology, 2020).

The target of assay [1] is T1, p53 Y220S mutant DBD (Homo sapiens, UniProt P04637, M133L/N239Y/N268D/V203A/Y220S).
T1 construct: the mutant p53 DBD (residues 94–312) of interest; 6xHis (N, cleaved yes); lipoyl domain of dihydrolipoamide acetyltransferase (Bacillus stearothermophilus) (N, cleaved yes); made in house; host or cells: E. coli C41
As to the kind of experiment: DSF thermal shift assay, Y220S mutant. The assay is classed as binding. Particulars: 250 μM compound. The procedure:
(§1) Melting temperatures of the p53 mutants were determined by differential scanning fluorimetry (DSF) using the dye SYPRO Orange (Invitrogen), which quantitatively binds to hydrophobic protein patches that become exposed upon thermal unfolding. Real-time melt analyses were performed using either an Agilent MX3005P (heating rate of 270 K/h excitation/emission filters = 492/610 nm; Tables 2 and 4) or a Corbett Rotor-Gene 6000 real-time qPCR thermocycler (heating rate of 180 K/h, excitation/emission filters = 460/510 nm; Table 3). Tm measurements were performed with 8 μM p53 protein and 5–10 × SYPRO Orange (Life Technologies) in a 25 mM KPi (pH 7.2), 150 mM NaCl, and 1 mM TCEP assay buffer. For measurements of compound-induced Tm shifts (ΔTm), the assay buffer additionally contained 5% DMSO (v/v), with either 250 μM ligand or no ligand (control). ΔTm values were calculated as ΔTm = Tm (protein + compound) – Tm (protein). Native melting curves were measured in quadruplicate and compound-induced thermal shifts in triplicate or higher. Mean values ± SEM are given.

Assay [2] concerns the target T2, p53 Y220C mutant DBD (Homo sapiens, UniProt P04637, M133L/N239Y/N268D/V203A/Y220C).
T2 construct: the mutant p53 DBD (residues 94–312) of interest; 6xHis (N, cleaved yes); lipoyl domain of dihydrolipoamide acetyltransferase (Bacillus stearothermophilus) (N, cleaved yes); made in house; host or cells: E. coli C41
As to the kind of experiment: DSF thermal shift assay, Y220C mutant. The assay is classed as binding. Conditions: 250 μM compound. The method, then:
as §1

Assay [3] concerns the target T3, p53 Y220N mutant DBD (Homo sapiens, UniProt P04637, M133L/N239Y/N268D/V203A/Y220N).
T3 construct: the mutant p53 DBD (residues 94–312) of interest; 6xHis (N, cleaved yes); lipoyl domain of dihydrolipoamide acetyltransferase (Bacillus stearothermophilus) (N, cleaved yes); made in house; host or cells: E. coli C41
As to the kind of experiment: DSF thermal shift assay, Y220N mutant. Conditions: 250 μM compound, Agilent MX3005P, 270 K/h, triplicate, mean ± SEM (Table 4). The assay is classed as binding. The method, then:
as §1

Assay [4] concerns the target T4, p53 Y220H mutant DBD (Homo sapiens, UniProt P04637, M133L/N239Y/N268D/V203A/Y220H).
T4 construct: the mutant p53 DBD (residues 94–312) of interest; 6xHis (N, cleaved yes); lipoyl domain of dihydrolipoamide acetyltransferase (Bacillus stearothermophilus) (N, cleaved yes); made in house; host or cells: E. coli C41
As to the kind of experiment: DSF thermal shift assay, Y220H mutant. The class given is binding. Particulars: 250 μM compound, Agilent MX3005P, 270 K/h, triplicate, mean ± SEM (Table 4). The method, then:
as §1

Assay [5] has as its target T5, p53 DBD WT (stabilized M133L/V203A/N239Y/N268D) (Homo sapiens, UniProt P04637, M133L/N239Y/N268D/V203A).
T5 construct: the mutant p53 DBD (residues 94–312) of interest; 6xHis (N, cleaved yes); lipoyl domain of dihydrolipoamide acetyltransferase (Bacillus stearothermophilus) (N, cleaved yes); made in house; host or cells: E. coli C41
Put plainly: DSF thermal shift assay, WT (stabilized quadruple mutant DBD). The assay is classed as binding. Particulars: 250 μM compound, Agilent MX3005P, 270 K/h, triplicate, mean ± SEM (Table 4). The method, then:
as §1

Assay [6] addresses T2, p53 Y220C mutant DBD. Particulars: ITC, cited from earlier work. Background: ITC needs no label: the signal is the heat of the interaction.
Assay [7] deals with T3, p53 Y220N mutant DBD. Put plainly: Isothermal titration calorimetry, Y220N mutant. The assay is classed as binding. Particulars: ITC, Nano ITC, 20 °C. The procedure: (§2) Isothermal titration calorimetry (ITC) experiments for the Y220C and Y220S mutants were performed using a MicroCal (Amherst) iTC200 calorimeter as described.[14] Briefly, the cell unit contained 30–50 μM protein in a 25 mM KPi (pH 7.2), 150 mM NaCl, 1 mM TCEP, and 5% (v/v) DMSO assay buffer. The syringe contained 0.5–2 mM compound in the same buffer, using injection steps of 2 μL at a rate of 0.5 μL/s (initial injection: 0.5 μL) and 120 s spacing. […] Data analysis was performed using the MicroCal Origin software. ITC measurements for the Y220N mutant were carried out with the same buffers as above but using a Nano ITC microcalorimeter (TA Instruments) and injection steps of 8 μL, at a rate of 0.5 μL/s, and 200 s spacing. Data were processed using the NanoAnalyze software (Version 3.5.0) supplied with the instrument. All measurements were performed at 20 °C.

The target in assay [8] is T1, p53 Y220S mutant DBD. As to the kind of experiment: Isothermal titration calorimetry, Y220S mutant. The class given is binding. Particulars: for Kd: ITC, 20 °C, 25 mM KPi pH 7.2, 5% DMSO. The procedure:
as §2

Where [9] appears, read: 8 μM protein, 5% DMSO, Rotor-Gene 6000, 180 K/h, quadruplicate, mean ± SEM (Table 3), read-out: Y220S mutant ΔTm.
Setting [10] is: 8 μM protein, 5% DMSO, Rotor-Gene 6000, 180 K/h, quadruplicate, mean ± SEM (Table 3), read-out: Y220C mutant ΔTm.
Setting [11] is: Agilent MX3005P, 270 K/h, triplicate, mean ± SEM (Table 4), read-out: ΔTm Y220S.
Where [12] appears, read: Agilent MX3005P, 270 K/h, triplicate, mean ± SEM (Table 4), read-out: ΔTm Y220C.

Like-named read-outs stand apart in the source and are kept apart here.

For the molecule `CCn1c2ccccc2c2cc(CNC)ccc21` [PK083], the ΔTm at 250 µM was 0.7 ± 0.1 °C in assay [1] (setting [9]) and 1 ± 0.1 °C in assay [2] (setting [10]).

Turning to `CNCc1ccc2c(c1)c1ccccc1n2CC(F)(F)F` [PK9255], the ΔTm at 250 µM in assay [3] was 1.4 ± 0.1 °C; in assay [4], 0.2 ± 0.1 °C; in assay [5] it was 0 °C; in assay [1] (setting [9]) it was 3.2 °C; in assay [1] (setting [11]) it was 3.2 °C; in assay [2] (setting [10]), 1.7 ± 0.1 °C. In assay [2] (setting [12]), the ΔTm at 250 µM stood at 1.7 ± 0.1 °C. Besides, in assay [4], the “ΔTm Y220H” value was “no significant stabilizing effect”. Further, the Kd was 28 µM in assay [6] (ref 14 (Bauer et al.)), 40 µM in assay [7] and 16 ± 2 µM in assay [8]. In addition, the “Tighter binding to Y220S than to Y220C (ratio of Kd)” value in assay [8] (Kd 16 μM (Y220S) vs 28 μM (Y220C)) was “about 2 times”.

As to `CCn1c2ccc(CNC)cc2c2ccc(Br)cc21` [PK9284], the Kd in assay [6] (ref 17 (Bauer et al.)) was 14 ± 2 µM. The results for the ΔTm at 250 µM in assay [1] (setting [9]) and in assay [2] (setting [10]) were 1.8 ± 0.1 °C and 2.4 ± 0.1 °C, respectively.

For `CCn1c2ccc(CN(C)C)cc2c2ccc(Br)cc21` [PK9285], the ΔTm at 250 µM in assay [3] is 1.4 ± 0.1 °C; in assay [4], 0.2 °C; in assay [5] it was -0.2 ± 0.1 °C; in assay [1] (setting [11]), 2.1 ± 0.1 °C; in assay [2] (setting [12]), 2 °C.

On to `CCOc1ccc2c3cc(CNC)ccc3n(CC)c2c1` [PK9295], for which, in assay [6] (ref 17 (Bauer et al.)), the Kd is 62 ± 7 µM. Moreover, the ΔTm at 250 µM in assay [1] (setting [9]) is 0.9 °C; in assay [2] (setting [10]), 1.2 ± 0.1 °C.

Turning to `CNCc1ccc2c(c1)c1ccc(Br)cc1n2CC(F)(F)F` [PK9301, 1-(7-Bromo-9-(2,2,2-trifluoroethyl)-9H-carbazol-3-yl)-N-methylmethanamine], the ΔTm at 250 µM in assay [1] (setting [9]) is greater than 5 °C; in assay [2] (setting [10]), 3.5 ± 0.1 °C. Moreover, the Kd in assay [8] was 4 ± 1 µM.

On to `CCn1c2ccc(CNC)cc2c2ccc(-c3cccs3)cc21` [PK9318], for which the Kd in assay [6] (ref 17 (Bauer et al.)) was 2.6 ± 0.4 µM. Also, the ΔTm at 250 µM in assay [1] (setting [9]) was 2.1 °C; in assay [2] (setting [10]), 4.4 ± 0.1 °C.

For the molecule `CCn1c2ccc(CNC)cc2c2ccc(-c3ccco3)cc21` [PK9320], the Kd in assay [6] (ref 17 (Bauer et al.)) is 4.1 ± 0.2 µM. For the same molecule, the ΔTm at 250 µM in assay [1] (setting [9]) is 1.8 ± 0.1 °C; in assay [2] (setting [10]), 3.4 °C.

As to `CCn1c2ccc(CNC)cc2c2ccc(-c3ccoc3)cc21` [PK9321], the ΔTm at 250 µM in assay [3] turned out to be 1.4 ± 0.1 °C; in assay [4], 0.7 ± 0.1 °C; in assay [5], 0.2 ± 0.1 °C; in assay [1] (setting [11]) it was 2.1 ± 0.1 °C; in assay [2] (setting [12]), 3.1 ± 0.1 °C.

With `CCn1c2ccc(CNC)cc2c2ccc(-c3nccs3)cc21` [PK9322], the Kd in assay [6] (ref 17 (Bauer et al.)) is 8.3 ± 2.6 µM. The figures for the ΔTm at 250 µM in assay [1] (setting [9]) and in assay [2] (setting [10]) were 3 °C and 3.4 °C, respectively.

With `CCn1c2ccc(CNC)cc2c2ccc(-c3cscn3)cc21` [PK9323], the ΔTm at 250 µM in assay [3] was 0.7 ± 0.1 °C; in assay [4], -0.3 ± 0.1 °C; in assay [5], -0.4 ± 0.2 °C; in assay [1] (setting [9]), 3.7 ± 0.3 °C; in assay [1] (setting [11]), 3.7 ± 0.3 °C; in assay [2] (setting [10]), 3.1 ± 0.1 °C. The ΔTm at 250 µM in assay [2] (setting [12]) amounted to 3.1 ± 0.1 °C. The figures for the Kd in assay [6] (ref 17 (Bauer et al.)) and in assay [8] were 5.3 ± 1.4 µM and 5.9 ± 1.3 µM, respectively.

`CCn1c2ccc(CNC)cc2c2ccc(-c3ccc(C)s3)cc21` [PK9327]: the ΔTm at 250 µM in assay [1] (setting [9]) was 1.2 °C; in assay [2] (setting [10]) it was 3.7 ± 0.2 °C.

In the case of `CCn1c2ccc(CNC)cc2c2ccc(-c3cc(C)cs3)cc21` [PK9328], the ΔTm at 250 µM in assay [1] (setting [9]) was 1.5 ± 0.1 °C; in assay [2] (setting [10]), 3.7 °C.

`CCn1c2ccc(CNC)cc2c2ccc(-c3sccc3C)cc21` [PK9331]: the ΔTm at 250 µM in assay [1] (setting [9]) amounted to 1.1 ± 0.1 °C; in assay [2] (setting [10]), 2.1 ± 0.1 °C.

In the case of `CCn1c2ccc(CNC)cc2c2ccc(-c3cnoc3)cc21` [PK9424], the ΔTm at 250 µM in assay [1] (setting [9]) is 1.2 ± 0.1 °C; in assay [2] (setting [10]) it was 2.3 ± 0.1 °C.

Broadly, the ΔTm is the change in melting temperature against a reference sample. As usually defined, the Kd is the concentration at which binding is half-saturated.
